Measurements: the supplement of paper PMC6723410

Tested on: GUMC-403
Assay: viability at highest tested concentration (max response) relative to DMSO (% of DMSO control); higher = less cytotoxic
Details: library / dose series: MIPE library, 11-point 1:3 dilution, 48 h
Method in brief: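 Viability at the highest tested concentration is given relative to vehicle control. For this, conditionally reprogrammed patient-derived GUMC-403 papilloma cells at 700/well in 1536-well plates were exposed to 23 nL of pinned compound for 48 h. Luminescence from CellTiter-Glo was read on a ViewLux and scaled between empty wells (0%) and vehicle wells (100%).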

SMILES | viability (top concentration 46.1 µM) | viability (top concentration 92.2 µM)
Cn1cnc2c(F)c(Nc3ccc(Br)cc3F)c(C(=O)NOCCO)cc21 | 89.6 | 
CN1\C(=C(\O)C2=C(C=CC=C2)[S+]1([O-])=O)C(=O)NC3=CC=CC=N3 | 99 | 
Cc1ccc(C(C)(O)c2nc3ccccc3s2)c(C)c1 (stereo unspecified) | 115 | 
CC[C@H](NC(C)C)[C@H](O)c1ccc(O)c2[nH]c(=O)ccc12 | 123 | 
C/C(O)=C(\C#N)C(=O)Nc1cc(Br)ccc1Br | 101 | 
CC(C)(C)/[N+]([O-])=C/c1ccc([S+](=O)([O-])[O][Na])cc1[S+](=O)([O-])[O][Na] | 84.5 | 
COc1cc2c(N3CCN(C(=O)Nc4ccc(OC(C)C)cc4)CC3)ncnc2cc1OCCCN1CCCCC1 | 109 | 
COC1=CC=CC=C1C2=CC=CC(=C2)C/3=C(O)/C4=CC(=C(Cl)C=C4NC3=O)C#N |  | 142
CC(=O)NC(C)c1ccc(Oc2ccc(OC(C)C)cc2)cc1 (stereo unspecified) | 121 | 
CNC(=O)c1c(-c2ccc(F)cc2)oc2cc(N(CCO)[S+](C)(=O)[O-])c(C3CC3)cc12 | 69.1 | 
CCN(CC)CCCC(C)Nc1ccnc2cc(Cl)ccc12 (stereo unspecified) | 103 | 
CC1CCC(C(=O)N(c2cc(C#CC(C)(C)C)sc2C(=O)O)C2CCC(O)CC2)CC1 (stereo unspecified) | 106 | 
Cc1cnc(C(=O)O)c[n+]1[O-] | 117 | 
CCOC(=O)[C@H](CCc1ccccc1)N[C@@H](C)C(=O)N1CCC[C@H]1C(=O)O | 125 | 
CC(C)NCC(O)c1ccc(NS(C)(=O)=O)cc1 (stereo unspecified) | 123 | 
NC(=O)c1ccc(-c2nc(-c3ccc4c(c3)OCO4)c(-c3ccccn3)[nH]2)cc1 | 126 | 
Nc1ccc([S+](=O)([O-])Nc2ccccn2)cc1 | 115 | 
C[S+](=O)([O-])Nc1ccc([N+](=O)[O-])cc1Oc1ccccc1 | 113 | 

SMILES | viability (top concentration 46.1 µM) | viability (top concentration 92.2 µM)
O=C(O)c1ccc(-n2nc(-c3ccccc3O)nc2-c2ccccc2O)cc1 | 80.9 | 
CCN(CC)CCCCNc1ncc2cc(-c3cc(OC)cc(OC)c3)c(NC(=O)NC(C)(C)C)nc2n1 | 128 | 
Cc1ncc([N+](=O)[O-])n1CC(C)O (stereo unspecified) | 110 | 
CN(C)CCC=C1C2=C(C=CC=C2)\C=C/C3=C1C=CC=C3 | 115 | 
C[C@]12CCC(=O)C=C1CC[C@@H]1[C@@H]2CC[C@@]2(C)[C@H]1CC[C@]2(C)O |  | 128
COc1cc[nH]c2ncc(C(=O)C(=O)N3CCN(C(=O)c4ccccc4)C[C@H]3C)c1-2 | 134 | 
O=C(Oc1ccc([N+](=O)[O-])cc1)N1CCN(Cc2cccc(Oc3ccccc3)c2)CC1 | 63.7 | 
CN1CC/C(CC1)=C3\c4ccccc4CC(=O)c2sccc23 | 97.2 | 
OC1=CC2=C(C(=C1)O)C(=O)\C(=C(/O2)C3=CC(=C(O)C=C3)O)O | 147 | 
Cc1c(Cn2c(C)nc3c(C(=O)O)cc(N4CCOCC4)cc32)cccc1C(F)(F)F | 76.9 | 
CC(C)(C)Cn1c(N)nc2ccc(-c3[nH]c(C(C)(C)C)nc3-c3ccc(F)cc3)nc21 | 76.7 | 
CCCCC(F)(F)[C@@]1(O)CC[C@H]2[C@@H](CC(=O)[C@@H]2CCCCCCC(=O)O)O1 | 110 | 
CN(C)CC(C)(C)CNc1nn2c(-c3ccccc3)nnc2cc1C1CCC1 | 108 | 
CC1(C)[C@@H](O[C@H]2O[C@H](C(=O)O)[C@@H](O)[C@H](O)[C@H]2O[C@@H]2O[C@H](C(=O)O)[C@@H](O)[C@H](O)[C@H]2O)CC[C@]2(C)[C@H]3C(=O)C=C4[C@@H]5C[C@@](C)(C(=O)O)CC[C@]5(C)CC[C@@]4(C)[C@]3(C)CC[C@@H]12 | 115 | 
CCN(CC)CCCCNc1ncc2c(n1)N(C)C(=O)N(c1c(Cl)c(OC)cc(OC)c1Cl)C2 | 99.8 | 
C[C@@H](N)c1ccc(C(=O)Nc2ccnc3[nH]ccc23)cc1 | 139 | 
Clc1cc(Cl)cc(CNc2ncncc2-c2ccc3c(c2)OCO3)c1 | 99.6 | 
OC[C@H]1O[C@@H](OCCc2ccc(O)cc2)[C@H](O)[C@@H](O)[C@@H]1O | 107 | 
